In US10253002B2, “Compounds and methods of treating infections” (Neoculi Pty Ltd., priority 2013, dated 2019):
In brackets after ≈: the same amount, converted by molar mass.

Key:
Test in all cases: Broth microdilution MIC, Example 7 (NCL812 and analogues)
VRE = format: cell-based, Enterococcus spp.; conditions: for activity against VRE among analogues: MIC testing, two VRE strains
Outline: (§1)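 Duplicates per isolate, repeated a third time if >one two-fold dilution apart. MIC50, MIC20 and range calculated per bacterial group.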

Pseudomonas aeruginosa = format: cell-based; conditions: 24 hours
MRSA = format: cell-based, Staphylococcus aureus; conditions: for activity against MRSA among analogues: MIC testing, two MRSA strains
Outline: as §1

Escherichia coli = format: cell-based; conditions: 24 hours
[1] = isolate VRE 1, 1st and 2nd replicate rows
[2] = isolate VRE 2, 1st and 2nd replicate rows
[3] = isolate MRSA 1, 1st and 2nd replicate rows
[4] = isolate MRSA 2, 1st and 2nd replicate rows

| SMILES | MIC (μg/ml) at 24 hours, VRE 1 (VRE; [1]) [µg/mL] | MIC (μg/ml) at 24 hours, VRE 2 (VRE; [2]) [µg/mL] | MIC (μg/ml) at 24 hours, P. aeruginosa (Pseudomonas aeruginosa; 1st and 2nd replicate rows) [µg/mL] | MIC (μg/ml) at 24 hours, MRSA 1 (MRSA; [3]) [µg/mL] | MIC (μg/ml) at 24 hours, MRSA 2 (MRSA; [4]) [µg/mL] | MIC (μg/ml) at 24 hours, E. coli (Escherichia coli; 1st and 2nd replicate rows) [µg/mL] | activity against VRE among analogues (VRE) | activity against MRSA among analogues (MRSA) | MIC (μg/ml) at 24 hours, VRE 1 (VRE; VRE 1, duplicate lines per compound) [µg/mL] | MIC (μg/ml) at 24 hours, VRE 2 (VRE; VRE 2, duplicate lines per compound) [µg/mL] | MIC (μg/ml) at 24 hours, P. aeruginosa (Pseudomonas aeruginosa; P. aeruginosa, duplicate lines per compound) [µg/mL] | MIC (μg/ml) at 24 hours, MRSA 1 (MRSA; MRSA 1, duplicate lines per compound) [µg/mL] | MIC (μg/ml) at 24 hours, MRSA 2 (MRSA; MRSA 2, duplicate lines per compound) [µg/mL] | MIC (μg/ml) at 24 hours, E. coli (Escherichia coli; E. coli, duplicate lines per compound) [µg/mL] |
| --- | --- | --- | --- | --- | --- | --- | --- | --- | --- | --- | --- | --- | --- | --- |
| N#Cc1ccccc1C=NNC(=S)NN=Cc1ccccc1C#N [NCL064] | >128 | >128 | >128 | >128 | >128 | >128 | – | – | – | – | – | – | – | – |
| N#Cc1cccc(/C=N/NC(=S)N/N=C/c2cccc(C#N)c2)c1 [NCL065] | >128 | >128 | >128 | >128 | >128 | >128 | – | – | – | – | – | – | – | – |
| Fc1cccc(/C=N/NC(=S)N/N=C/c2cccc(F)c2)c1 [NCL066] | >128 | >128 | >128 | >128 | >128 | >128 | – | – | – | – | – | – | – | – |
| NC(=O)N/N=C/c1cccc(C(F)(F)F)c1 [NCL067] | >128 | >128 | >128 | >128 | >128 | >128 | – | – | – | – | – | – | – | – |
| C/C(=N\NC(=N)N/N=C/c1ccc(C(F)(F)F)cc1)c1ccc(Cl)cc1.Cl [NCL068] | >128 | >128 | >128 | >128 | >128 | >128 | – | – | – | – | – | – | – | – |
| CC(=NNC(=N)NN)c1ccc(Cl)cc1.Cl [NCL069] | 128 | 64 | >128 | 128 | 128 | >128 | greatest activity | greatest activity | – | – | – | – | – | – |
| S=C(N/N=C/c1cccc(Cl)c1)N/N=C/c1cccc(Cl)c1 [NCL070] | >128 | 32 (≈ 91.1 µM) | >128 | >128 | >128 | >128 | greatest activity | – | – | – | – | – | – | – |
| Cl.N=C(NN)NN=Cc1ccc(Cl)cc1 [NCL072] | – | – | – | – | – | – | greatest activity | greatest activity | 64 | 64 | >128 | 32 | 64 | >128 |
